Legend:
Type in all cases: cell-based
[1] = tested on: multi-resistant Staphylococcus aureus 575; experiment: paper diffusion method drug sensitivity test, MRSA-575; settings: for Zone of Inhibition: MRSA-575, 30 μg/tablet paper disc (6.35 mm), LB plate, 37° C., 24 h; for inhibitory effect (in words): multi-drug resistant Staphylococcus aureus 575, 30 μg/tablet
Description: (§1) The antimicrobial efficacy was determined by a paper diffusion method drug sensitivity test.
(§2) Experimental strains: multi-resistant Staphylococcus aureus 171, multi-resistant Staphylococcus aureus 575, multi-resistant Staphylococcus aureus 596. The experimental strain was identified by Huashan Hospital, Fudan University (Institute of Antibiotic of Fudan University).
(§3) Drug sensitive paper: The drug sensitive paper was a special drug sensitive paper with a diameter of 6.35 mm and a water absorption of 0.02 mL. The control drug was vancomycin (30 μg/tablet); the test drugs were pleuromutilin (30 μg/tablet), hippuric acid (30 μg/tablet) and pleuromutilin hippuric acid ester (30 μg/tablet).
(§4) Reagents: LB agar medium, LA broth medium, 0.5% DMSO solution.
(§5) The experimental strains were inoculated in non-selective medium and placed in air at 37° C. for 24 h. A single colony that grows well and inoculate it into broth medium was incubate at 35° C.±2° C. for 6 hours, and LA broth medium was used to calibrate the concentration of the bacterial solution to 0.5 Mie turbidimetric tube (1.5×10^8 CFU/mL). A bacterial suspension was obtained.
(§6) LB dry powder was weighed, sterilized at 103.4 Kpa, 121.3° C. high-pressure steam for 15 min, and then placed it in a 40° C.-50° C. water bath. A sterile empty plate (inner diameter 9 cm) was placed on the surface of the ultra-clean table water table, and […] was poured to the plate. The thickness of each plate was 3 mm to 4 mm. After the plate was cooled at room temperature, it was stored in the refrigerator at 2° C.-8° C. A sterile cotton swab was used to dip the bacterial solution and ti evenly coat the surface of the LB plate 3 times. After inoculation of the bacterial suspension, the LB plate was dried at room temperature for 3 min to 5 min. Sterile forceps were used to closely attach the antibacterial drug paper to the dish. The dish was put upside down and placed in a 37° C. incubator for 24 h. The results were observed by measuring the diameter. Taking 0.5% DMSO solution as a negative control, the antibacterial activity is expressed by the diameter of the inhibition zone. The inhibition zone ≥17 mm, sensitive; the inhibition zone of 15 mm-16 mm, intermediary; the inhibition zone ≤14 mm, drug resistance.

[2] = tested on: multi-resistant Staphylococcus aureus 171; experiment: paper diffusion method drug sensitivity test, MRSA-171; settings: for Zone of Inhibition: MRSA-171, 30 μg/tablet paper disc (6.35 mm), LB plate, 37° C., 24 h; for inhibitory effect (in words): multi-drug resistant Staphylococcus aureus 171, 30 μg/tablet
Description: as §1, §2, §3, §4, §5, §6

[3] = tested on: multi-resistant Staphylococcus aureus 596; experiment: paper diffusion method drug sensitivity test, MRSA-596; settings: for Zone of Inhibition: MRSA-596, 30 μg/tablet paper disc (6.35 mm), LB plate, 37° C., 24 h; for inhibitory effect (in words): multi-drug resistant Staphylococcus aureus 596, 30 μg/tablet
Description: as §1, §2, §3, §4, §5, §6

| Compound | Zone of Inhibition [1] | inhibitory effect (in words) [1] | Zone of Inhibition [2] | inhibitory effect (in words) [2] | Zone of Inhibition [3] | inhibitory effect (in words) [3] |
| --- | --- | --- | --- | --- | --- | --- |
| O=C(O)CNC(=O)c1ccccc1 [Hippuric acid] | 0 mm | no inhibitory effect | 0 mm | no inhibitory effect | 0 mm | no inhibitory effect |
| C=C[C@]1(C)C[C@@H](OC(=O)COC(=O)CNC(=O)c2ccccc2)[C@]2(C)CC[C@@H](C)[C@@]3(CCC(=O)[C@@H]23)[C@@H](C)[C@@H]1O [Pleuromutilin hippuric acid ester, (3aS,4R,5S,6S,8R,9R,9aR,12R)-5-hydroxy-4,6,9,12-tetramethyl-1-oxo-6-vinyldecahydro-3a,9-propanocyclopenta[8]annulen-8-yl 2-(2-benzamidoacetoxy)acetate] | 15 mm | strong inhibitory effects | 14 mm | strong inhibitory effects | 25 mm | strong inhibitory effects |
| C=C[C@]1(C)C[C@@H](OC(=O)CO)[C@]2(C)[C@H](C)CC[C@]3(CCC(=O)[C@H]32)[C@@H](C)[C@@H]1O [Pleuromutilin] | 0 mm | no inhibitory effect | 0 mm | no inhibitory effect | 0 mm | no inhibitory effect |
| CN[C@H](CC(C)C)C(=O)N[C@H]1C(=O)N[C@@H](CC(N)=O)C(=O)N[C@H]2C(=O)N[C@H]3C(=O)N[C@H](C(=O)N[C@H](C(=O)O)c4cc(O)cc(O)c4-c4cc3ccc4O)[C@H](O)c3ccc(c(Cl)c3)Oc3cc2cc(c3O[C@@H]2O[C@H](CO)[C@@H](O)[C@H](O)[C@H]2O[C@H]2C[C@](C)(N)[C@H](O)[C@H](C)O2)Oc2ccc(cc2Cl)[C@H]1O [Vancomycin] | 17 mm | – | 15 mm | – | 23 mm | – |
